By Ki is commonly meant the dissociation constant of the complex between target and ligand, obtained from inhibition or displacement. High values mean a looser hold on the target, low ones a stronger hold on the target.

Consider 34 compounds from patent publication US9029546B2, “Pyrazolopyridine kinase inhibitors” (Vertex Pharmaceuticals Incorporated, priority 2008, dated 2015).

For one experiment, the target named is PKC Delta (Homo sapiens, UniProt Q05655). In words: PKC delta coupled-enzyme kinase assay (NADH consumption). The settings on record: 240 μM ATP, 30° C. The experiment is classed as biochemical. As for the experimental part: [The source words this procedure for another target and reports this target under the same test.] (§1) An assay buffer solution was prepared which consisted of 100 mM HEPES (pH 7.5), 10 mM MgCl2, 25 mM NaCl, 0.1 mM EDTA and 0.01% Brij. An enzyme buffer containing reagents to final assay concentrations of 0.00001% Triton X-100, 200 μg/mL Phosphatidylserine, 20 μg/mL Diacylglycerol, 360 μM NADH, 3 mM phosphoenolpyruvate, 70 μg/mL pyruvate kinase, 24 μg/mL lactate dehydrogenase, 2 mM DTT, 100 μM substrate peptide (ERMRPRKRQGSVRRRV (SEQ ID NO: 1)) and 18 nM PKC theta kinase was prepared in assay buffer. To 60 μL of this enzyme buffer, in a 384 well plate, was added 2 μL of VRT stock solution in DMSO. The mixture was allowed to equilibrate for 10 mins at 30° C. The enzyme reaction was initiated by the addition of 5 μL stock ATP solution prepared in assay buffer to a final assay concentration of 240 μM. Initial rate data was determined from the rate of change of absorbance at 340 nm (corresponding to stoichiometric consumption of NADH) using a Molecular Devices Spectramax plate reader (Sunnyvale, Calif.) over 15 mins at 30° C. For each Ki determination 12 data points covering the VRT concentration range of 0-20 μM were obtained in duplicate (DMSO stocks were prepared from an initial 10 mM VRT stock with subsequent 1:2 serial dilutions). Ki values were calculated from initial rate data by non-linear regression using the Prism software package (Prism 4.0a, Graphpad Software, San Diego, Calif.).
PKC Delta, sequence (Q05655 whole entry): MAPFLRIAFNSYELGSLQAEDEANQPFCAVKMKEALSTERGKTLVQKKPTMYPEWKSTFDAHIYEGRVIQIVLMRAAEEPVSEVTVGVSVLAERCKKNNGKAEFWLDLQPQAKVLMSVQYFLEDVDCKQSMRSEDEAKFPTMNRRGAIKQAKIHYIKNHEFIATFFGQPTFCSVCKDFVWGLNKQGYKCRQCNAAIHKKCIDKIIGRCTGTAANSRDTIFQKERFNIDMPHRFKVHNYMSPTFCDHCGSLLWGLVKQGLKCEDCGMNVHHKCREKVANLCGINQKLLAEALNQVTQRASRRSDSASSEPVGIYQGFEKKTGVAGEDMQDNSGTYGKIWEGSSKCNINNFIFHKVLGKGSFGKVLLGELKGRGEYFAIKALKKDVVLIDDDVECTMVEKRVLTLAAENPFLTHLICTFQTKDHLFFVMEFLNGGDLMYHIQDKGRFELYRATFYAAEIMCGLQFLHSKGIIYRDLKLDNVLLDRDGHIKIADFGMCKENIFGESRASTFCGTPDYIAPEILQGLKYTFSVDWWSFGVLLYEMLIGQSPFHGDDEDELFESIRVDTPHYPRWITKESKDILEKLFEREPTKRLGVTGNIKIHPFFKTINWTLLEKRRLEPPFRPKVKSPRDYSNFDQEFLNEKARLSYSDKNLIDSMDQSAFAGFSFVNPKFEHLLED

A further experiment concerns the target PKC theta kinase (Homo sapiens, UniProt Q04759). In words: PKC theta coupled-enzyme kinase assay (NADH consumption). Format: biochemical. The settings on record: 240 μM ATP, 30° C. The method, then: as §1

PKC theta kinase, sequence (Q04759 whole entry): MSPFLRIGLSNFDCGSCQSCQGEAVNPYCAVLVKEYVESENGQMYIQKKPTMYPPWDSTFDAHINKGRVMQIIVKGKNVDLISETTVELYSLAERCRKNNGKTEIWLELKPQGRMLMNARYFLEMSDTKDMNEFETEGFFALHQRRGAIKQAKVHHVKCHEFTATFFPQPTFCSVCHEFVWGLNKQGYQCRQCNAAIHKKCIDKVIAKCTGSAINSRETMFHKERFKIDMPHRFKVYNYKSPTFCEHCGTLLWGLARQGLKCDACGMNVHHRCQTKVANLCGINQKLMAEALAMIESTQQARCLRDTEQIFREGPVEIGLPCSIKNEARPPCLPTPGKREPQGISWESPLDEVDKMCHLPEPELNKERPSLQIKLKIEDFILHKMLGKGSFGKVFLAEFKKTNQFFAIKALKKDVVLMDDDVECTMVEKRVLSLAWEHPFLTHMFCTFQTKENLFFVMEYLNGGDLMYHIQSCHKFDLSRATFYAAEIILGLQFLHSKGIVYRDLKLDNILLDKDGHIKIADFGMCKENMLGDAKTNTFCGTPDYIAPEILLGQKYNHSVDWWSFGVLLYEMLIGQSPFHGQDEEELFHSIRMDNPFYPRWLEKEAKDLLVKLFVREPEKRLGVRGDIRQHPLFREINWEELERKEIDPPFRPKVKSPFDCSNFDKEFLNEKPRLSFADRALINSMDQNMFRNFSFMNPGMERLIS

In the case of `CC(C)C[C@H](N)COc1ccc(C(F)(F)F)c(-c2n[nH]c3ncccc23)n1` [Compound 38], the Ki on PKC Delta and on PKC theta kinase was below 0.5 µM throughout.
As to `CN(C)C(C)(C)COc1ccc(C(F)(F)F)c(-c2n[nH]c3ncccc23)n1` [Compound 52], the Ki on PKC Delta and on PKC theta kinase was above 0.7 µM in each case.
Regarding `CCC(O)CNc1ccc(C(F)(F)F)c(-c2n[nH]c3ncccc23)n1` (centres unmarked) [Compound 83], the Ki at PKC Delta and on PKC theta kinase was above 0.7 µM throughout.
As for `CCC(CN)(CNc1ccc(C(F)(F)F)c(-c2n[nH]c3ncccc23)n1)c1ccccc1` (centres unmarked) [Compound 65], the Ki at PKC Delta and at PKC theta kinase was below 0.5 µM in each case.
On to `OCCNc1ccc(C(F)(F)F)c(-c2n[nH]c3ncccc23)n1` [Compound 82], for which the Ki at PKC Delta and on PKC theta kinase was above 0.7 µM in each case.
For the compound `OCCNc1cccc(-c2n[nH]c3ncccc23)n1` [Compound 8], the Ki on PKC Delta and on PKC theta kinase was above 0.7 µM in each case.
For the compound `c1cc(NC2CCNCC2)nc(-c2n[nH]c3ncccc23)c1` [Compound 18], the Ki at PKC Delta and on PKC theta kinase was below 0.05 µM throughout.
With `CC(C)(CN)COc1ccc(C(F)(F)F)c(-c2n[nH]c3ncccc23)n1` [Compound 54], the Ki on PKC Delta and on PKC theta kinase was above 0.7 µM in each case.
With `c1cc(NCC2CCNC2)nc(-c2n[nH]c3ncccc23)c1` (centres unmarked) [Compound 22], the inhibitory constant (Ki) at PKC Delta and at PKC theta kinase was below 0.5 µM throughout.
Take `OC[C@H](Cc1ccccc1)Nc1ccc(C(F)(F)F)c(-c2n[nH]c3ncccc23)n1` [Compound 77]: the Ki at PKC Delta and at PKC theta kinase was above 0.7 µM throughout.
As to `FC(F)(F)c1ccc(N[C@@H]2CCc3ccccc32)nc1-c1n[nH]c2ncccc12` [Compound 85], the Ki at PKC Delta and at PKC theta kinase was above 0.7 µM throughout.
Regarding `CCN1CCCC(Oc2ccc(C(F)(F)F)c(-c3n[nH]c4ncccc34)n2)C1` (centres unmarked) [Compound 69], the Ki at PKC Delta and on PKC theta kinase was above 0.7 µM in each case.
`CN(CC#N)c1ccc(C(F)(F)F)c(-c2n[nH]c3ncccc23)n1` [Compound 44]: the Ki at PKC Delta and at PKC theta kinase was below 0.5 µM in each case.
As for `N[C@H](CNc1cccc(-c2n[nH]c3ncccc23)n1)c1ccccc1` [Compound 11], the Ki on PKC Delta and at PKC theta kinase was below 0.5 µM throughout.
Regarding `NC1CCCC(Nc2ccc(C(F)(F)F)c(-c3n[nH]c4ncccc34)n2)C1` (centres unmarked) [Compound 30], the Ki on PKC Delta and at PKC theta kinase was below 0.5 µM throughout.
As for `FC(F)(F)c1ccc(OCC2CCCNC2)nc1-c1n[nH]c2ncccc12` (centres unmarked) [Compound 46], the inhibition constant Ki at PKC Delta and at PKC theta kinase was above 0.7 µM in each case.
In the case of `FC(F)(F)c1ccc(NCC2CCCNC2)nc1-c1n[nH]c2ncccc12` (centres unmarked) [Compound 31], the Ki at PKC Delta and on PKC theta kinase was above 0.7 µM each time.
Take `FC(F)(F)c1ccc(NCC2CCNCC2)nc1-c1n[nH]c2ncccc12` [Compound 27]: the Ki on PKC Delta and on PKC theta kinase was above 0.7 µM in each case.
As for `O[C@H](CNc1ccc(C(F)(F)F)c(-c2n[nH]c3ncccc23)n1)c1ccccc1` [Compound 19], the Ki on PKC Delta and on PKC theta kinase was below 0.5 µM in each case.
For the compound `N#CCNc1ccc(C(F)(F)F)c(-c2n[nH]c3ncccc23)n1` [Compound 62], the Ki on PKC Delta and at PKC theta kinase was above 0.7 µM each time.
For the compound `CC(N)(CO)COc1ccc(C(F)(F)F)c(-c2n[nH]c3ncccc23)n1` (centres unmarked) [Compound 57], the inhibitory constant (Ki) at PKC Delta and at PKC theta kinase was above 0.7 µM throughout.
On to `FC(F)(F)c1ccc(Nc2ccc3nc[nH]c3c2)nc1-c1n[nH]c2ncccc12` [Compound 49], for which the Ki at PKC Delta and at PKC theta kinase was above 0.7 µM in each case.
With `FC(F)(F)c1ccc(NCC2CCCN2)nc1-c1n[nH]c2ncccc12` (centres unmarked) [Compound 28], the Ki at PKC Delta and on PKC theta kinase was above 0.7 µM throughout.
Consider `CC(C)(CN)CNc1cccc(-c2n[nH]c3ncccc23)n1` [Compound 10], for which the Ki on PKC Delta and on PKC theta kinase was below 0.5 µM throughout.
For the compound `CC(C)CC(O)CNc1ccc(C(F)(F)F)c(-c2n[nH]c3ncccc23)n1` (centres unmarked) [Compound 15], the Ki at PKC Delta and on PKC theta kinase was above 0.7 µM each time.
As to `CC(C)CC(O)CNc1cccc(-c2n[nH]c3ncccc23)n1` (centres unmarked) [Compound 21], the inhibition constant Ki on PKC Delta and at PKC theta kinase was above 0.7 µM each time.
Turning to `CC(CO)Nc1ccc(C(F)(F)F)c(-c2n[nH]c3ncccc23)n1` (centres unmarked) [Compound 73], the Ki on PKC Delta and at PKC theta kinase was above 0.7 µM each time.
`O[C@H](CNc1cccc(-c2n[nH]c3ncccc23)n1)c1ccccc1` [Compound 7]: the Ki at PKC Delta and at PKC theta kinase was above 0.7 µM each time.
For `c1cc(NCC2CCCCN2)nc(-c2n[nH]c3ncccc23)c1` (centres unmarked) [Compound 23], the Ki on PKC Delta and at PKC theta kinase was below 2.8 µM in each case.
Turning to `CC[C@H](CO)Nc1ccc(C(F)(F)F)c(-c2n[nH]c3ncccc23)n1` [Compound 86], the Ki on PKC Delta and at PKC theta kinase was above 0.7 µM throughout.
In the case of `c1cc(NC2CCNC2)nc(-c2n[nH]c3ncccc23)c1` (centres unmarked) [Compound 6], the Ki on PKC Delta and on PKC theta kinase was below 0.5 µM throughout.
For `N#CCCOc1ccc(C(F)(F)F)c(-c2n[nH]c3ncccc23)n1` [Compound 45], the Ki at PKC Delta and at PKC theta kinase was above 0.7 µM each time.
Regarding `CC(C)(CN)CNc1ccc(C(F)(F)F)c(-c2n[nH]c3ncccc23)n1` [Compound 33], the Ki on PKC Delta and on PKC theta kinase was below 0.5 µM each time.
`NC(CNc1ccc(C(F)(F)F)c(-c2n[nH]c3ncccc23)n1)c1ccccc1` (centres unmarked) [Compound 36]: the Ki at PKC Delta and at PKC theta kinase was below 0.05 µM each time.
